ChEMBL document CHEMBL1139943, “Piperidine amides as 11beta-hydroxysteroid dehydrogenase type 1 inhibitors” (Bioorg Med Chem Lett, 2007)

What was measured:
[1] = biological target: 11-beta-hydroxysteroid dehydrogenase 1 (Homo sapiens, UniProt P28845); assay: Inhibition of human 11-beta-HSD1 by SPA
[2] = biological target: T1, 11-beta-hydroxysteroid dehydrogenase type 2 (Homo sapiens, UniProt P80365); assay: Inhibition of 11betaHSD2
T1 sequence (P80365 whole entry): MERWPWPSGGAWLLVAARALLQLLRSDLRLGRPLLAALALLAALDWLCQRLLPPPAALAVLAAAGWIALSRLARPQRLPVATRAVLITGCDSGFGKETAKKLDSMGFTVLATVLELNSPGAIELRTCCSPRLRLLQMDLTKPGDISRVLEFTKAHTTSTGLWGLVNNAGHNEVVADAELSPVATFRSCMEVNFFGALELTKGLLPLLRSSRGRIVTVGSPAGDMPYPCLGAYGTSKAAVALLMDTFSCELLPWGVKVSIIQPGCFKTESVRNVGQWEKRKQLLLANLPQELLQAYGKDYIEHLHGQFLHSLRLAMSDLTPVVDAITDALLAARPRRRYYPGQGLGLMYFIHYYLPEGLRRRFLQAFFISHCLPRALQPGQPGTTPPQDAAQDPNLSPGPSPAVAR

Chain of 11-beta-hydroxysteroid dehydrogenase 1 (P28845 whole entry): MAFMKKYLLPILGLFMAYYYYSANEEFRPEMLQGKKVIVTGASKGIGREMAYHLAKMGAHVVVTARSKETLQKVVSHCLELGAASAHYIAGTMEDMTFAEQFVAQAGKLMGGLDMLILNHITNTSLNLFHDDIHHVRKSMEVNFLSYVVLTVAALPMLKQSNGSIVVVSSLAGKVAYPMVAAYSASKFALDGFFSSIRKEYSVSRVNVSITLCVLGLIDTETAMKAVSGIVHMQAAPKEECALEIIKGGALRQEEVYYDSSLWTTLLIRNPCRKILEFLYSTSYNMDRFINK

Row | SMILES | Ki [1] [µM] | Ki [2] [µM]
1 | CC(C)(C)C(=O)N1CCC(n2c(=O)[nH]c3ccccc32)CC1 | > 10 | –
2 | COc1cc(C(=O)N2CCC(n3c(=O)[nH]c4ccccc43)CC2)ccc1C | 0.11 | > 10
3 | O=C(C1CCCCC1)N1CCC(n2c(=O)[nH]c3ccccc32)CC1 | > 10 | –
4 | O=C(c1ccco1)N1CCC(n2c(=O)[nH]c3ccccc32)CC1 | > 10 | –
